Experimental data reported in the supplement of paper PMC10307832.

Key:
Assay in all cases: relative viability (nuclei count vs DMSO), 5 days (fraction); higher = more cells survive
[1] = compound: CC1=C(C=CC(=C1)[N+](=O)[O-])NS(=O)(=O)C2=C(C=CC(=C2)Cl)Cl [FH535] + CC(=O)Nc1cccc(-n2c(=O)n(C3CC3)c(=O)c3c(Nc4ccc(I)cc4F)n(C)c(=O)c(C)c32)c1 [Trametinib] (partner 0.02 µM)
How it was run: (§1)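 A single step with final 0.05% Triton X-100, 1% formaldehyde and 1 ug/ml Hoechst fixed the cells and stained nuclei 5 days after treatment. Lung cancer cell lines in 1536-well plates had been treated by pin tool the day after seeding with one drug alone or a fixed anchor-drug dose plus five library-drug doses (not always all listed) in √10 steps, and nuclei were counted on 4× images. Relative viability is the ratio of nuclei in treated wells to nuclei in vehicle wells, taken as the median of duplicate plates.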

[2] = compound: CC1=C(C=CC(=C1)[N+](=O)[O-])NS(=O)(=O)C2=C(C=CC(=C2)Cl)Cl [FH535] + C[C@@H](Oc1cc(-c2cnn(C3CCNCC3)c2)cnc1N)c1c(Cl)ccc(F)c1Cl [Crizotinib] (partner 1 µM)
How it was run: as §1

[3] = compound: CC1=C(C=CC(=C1)[N+](=O)[O-])NS(=O)(=O)C2=C(C=CC(=C2)Cl)Cl [FH535] + C[C@]1(O)C[C@@H](c2nc(-c3ccc4ccc(-c5ccccc5)nc4c3)c3c(N)nccn32)C1 [Linsitinib] (partner 1 µM)
How it was run: as §1

[4] = compound: CC1=C(C=CC(=C1)[N+](=O)[O-])NS(=O)(=O)C2=C(C=CC(=C2)Cl)Cl [FH535] + Nc1nc2[nH]cc(CCc3ccc(C(=O)N[C@@H](CCC(=O)O)C(=O)O)cc3)c2c(=O)[nH]1 [Pemetrexed] (partner 0.2 µM)
How it was run: as §1

[5] = compound: CC1=C(C=CC(=C1)[N+](=O)[O-])NS(=O)(=O)C2=C(C=CC(=C2)Cl)Cl [FH535] + O=C(c1cc(Cc2n[nH]c(=O)c3ccccc23)ccc1F)N1CCN(C(=O)C2CC2)CC1 [Olaparib] (partner 8 µM)
How it was run: as §1

Cell Line: NCI-H3122
- relative viability ([1]; first compound 0.04 µM): 0.188
- relative viability ([1]; first compound 0.1265 µM): 0.274
- relative viability ([1]; first compound 0.4 µM): 0.2
- relative viability ([1]; first compound 1.265 µM): 0.22
- relative viability ([2]; first compound 0.04 µM): 0.261
- relative viability ([2]; first compound 0.1265 µM): 0.282
- relative viability ([2]; first compound 0.4 µM): 0.253
- relative viability ([2]; first compound 1.265 µM): 0.285
- relative viability ([3]; first compound 0.04 µM): 0.989
- relative viability ([3]; first compound 0.1265 µM): 1.07
- relative viability ([3]; first compound 0.4 µM): 0.977
- relative viability ([3]; first compound 1.265 µM): 0.895
- relative viability ([4]; first compound 0.04 µM): 0.199
- relative viability ([4]; first compound 0.1265 µM): 0.191
- relative viability ([4]; first compound 0.4 µM): 0.188
- relative viability ([4]; first compound 1.265 µM): 0.189
- relative viability ([5]; first compound 0.04 µM): 0.631
- relative viability ([5]; first compound 0.1265 µM): 0.6
- relative viability ([5]; first compound 0.4 µM): 0.581
- relative viability ([5]; first compound 1.265 µM): 0.48

Cell Line: PC-3 [JPC-3]
- relative viability ([1]; first compound 0.04 µM): 0.726
- relative viability ([1]; first compound 0.1265 µM): 0.829
- relative viability ([1]; first compound 0.4 µM): 0.691
- relative viability ([1]; first compound 1.265 µM): 0.607
- relative viability ([2]; first compound 0.04 µM): 0.957
- relative viability ([2]; first compound 0.1265 µM): 0.981
- relative viability ([2]; first compound 0.4 µM): 0.885
- relative viability ([2]; first compound 1.265 µM): 0.531
- relative viability ([3]; first compound 0.04 µM): 0.982
- relative viability ([3]; first compound 0.1265 µM): 0.924
- relative viability ([3]; first compound 0.4 µM): 0.891
- relative viability ([3]; first compound 1.265 µM): 0.676
- relative viability ([4]; first compound 0.04 µM): 1.1
- relative viability ([4]; first compound 0.1265 µM): 1.11
- relative viability ([4]; first compound 0.4 µM): 0.745
- relative viability ([4]; first compound 1.265 µM): 0.652
- relative viability ([5]; first compound 0.04 µM): 1.12
- relative viability ([5]; first compound 0.1265 µM): 1.08
- relative viability ([5]; first compound 0.4 µM): 1.04
- relative viability ([5]; first compound 1.265 µM): 0.733

Cell Line: PC-14
- relative viability ([1]; first compound 0.04 µM): 0.652
- relative viability ([1]; first compound 0.1265 µM): 0.815
- relative viability ([1]; first compound 0.4 µM): 0.895
- relative viability ([1]; first compound 1.265 µM): 0.693
- relative viability ([2]; first compound 0.04 µM): 0.94
- relative viability ([2]; first compound 0.1265 µM): 0.917
- relative viability ([2]; first compound 0.4 µM): 0.863
- relative viability ([2]; first compound 1.265 µM): 0.889
- relative viability ([3]; first compound 0.04 µM): 0.996
- relative viability ([3]; first compound 0.1265 µM): 0.937
- relative viability ([3]; first compound 0.4 µM): 0.959
- relative viability ([3]; first compound 1.265 µM): 0.851
- relative viability ([4]; first compound 0.04 µM): 0.12
- relative viability ([4]; first compound 0.1265 µM): 0.137
- relative viability ([4]; first compound 0.4 µM): 0.13
- relative viability ([4]; first compound 1.265 µM): 0.123
- relative viability ([5]; first compound 0.04 µM): 0.242
- relative viability ([5]; first compound 0.1265 µM): 0.324
- relative viability ([5]; first compound 0.4 µM): 0.297
- relative viability ([5]; first compound 1.265 µM): 0.233

Cell Line: RERF-LC-KJ
- relative viability ([1]; first compound 0.04 µM): 0.862
- relative viability ([1]; first compound 0.1265 µM): 0.921
- relative viability ([1]; first compound 0.4 µM): 0.869
- relative viability ([1]; first compound 1.265 µM): 0.744
- relative viability ([2]; first compound 0.04 µM): 0.856
- relative viability ([2]; first compound 0.1265 µM): 0.826
- relative viability ([2]; first compound 0.4 µM): 0.86
- relative viability ([2]; first compound 1.265 µM): 0.671
- relative viability ([3]; first compound 0.04 µM): 0.872
- relative viability ([3]; first compound 0.1265 µM): 0.896
- relative viability ([3]; first compound 0.4 µM): 0.854
- relative viability ([3]; first compound 1.265 µM): 0.752
- relative viability ([4]; first compound 0.04 µM): 0.466
- relative viability ([4]; first compound 0.1265 µM): 0.491
- relative viability ([4]; first compound 0.4 µM): 0.469
- relative viability ([4]; first compound 1.265 µM): 0.435
- relative viability ([5]; first compound 0.04 µM): 0.904
- relative viability ([5]; first compound 0.1265 µM): 0.891
- relative viability ([5]; first compound 0.4 µM): 0.856
- relative viability ([5]; first compound 1.265 µM): 0.516

Cell Line: SK-LU-1
- relative viability ([1]; first compound 0.04 µM): 0.476
- relative viability ([1]; first compound 0.1265 µM): 0.49
- relative viability ([1]; first compound 0.4 µM): 0.501
- relative viability ([1]; first compound 1.265 µM): 0.418
- relative viability ([2]; first compound 0.04 µM): 1.15
- relative viability ([2]; first compound 0.1265 µM): 0.793
- relative viability ([2]; first compound 0.4 µM): 0.849
- relative viability ([2]; first compound 1.265 µM): 0.703
- relative viability ([3]; first compound 0.04 µM): 1.06
- relative viability ([3]; first compound 0.1265 µM): 1.17
- relative viability ([3]; first compound 0.4 µM): 1.16
- relative viability ([3]; first compound 1.265 µM): 0.678
- relative viability ([4]; first compound 0.04 µM): 1.01
- relative viability ([4]; first compound 0.1265 µM): 1.01
- relative viability ([4]; first compound 0.4 µM): 1.04
- relative viability ([4]; first compound 1.265 µM): 0.865
- relative viability ([5]; first compound 0.04 µM): 0.48
- relative viability ([5]; first compound 0.1265 µM): 0.439
- relative viability ([5]; first compound 0.4 µM): 0.456
- relative viability ([5]; first compound 1.265 µM): 0.407

Cell Line: SK-MES-1
- relative viability ([1]; first compound 0.04 µM): 0.503
- relative viability ([1]; first compound 0.1265 µM): 0.541
- relative viability ([1]; first compound 0.4 µM): 0.577
- relative viability ([1]; first compound 1.265 µM): 0.552
- relative viability ([2]; first compound 0.04 µM): 0.975
- relative viability ([2]; first compound 0.1265 µM): 1.01
- relative viability ([2]; first compound 0.4 µM): 0.973
- relative viability ([2]; first compound 1.265 µM): 0.855
- relative viability ([3]; first compound 0.04 µM): 1.04
- relative viability ([3]; first compound 0.1265 µM): 1.15
- relative viability ([3]; first compound 0.4 µM): 1.09
- relative viability ([3]; first compound 1.265 µM): 0.948
- relative viability ([4]; first compound 0.04 µM): 0.934
- relative viability ([4]; first compound 0.1265 µM): 0.906
- relative viability ([4]; first compound 0.4 µM): 0.913
- relative viability ([4]; first compound 1.265 µM): 0.849
- relative viability ([5]; first compound 0.04 µM): 0.729
- relative viability ([5]; first compound 0.1265 µM): 0.756
- relative viability ([5]; first compound 0.4 µM): 0.6
- relative viability ([5]; first compound 1.265 µM): 0.497

Cell Line: SW 1573
- relative viability ([1]; first compound 0.04 µM): 0.686
- relative viability ([1]; first compound 0.1265 µM): 0.528
- relative viability ([1]; first compound 0.4 µM): 0.651
- relative viability ([1]; first compound 1.265 µM): 0.376
- relative viability ([2]; first compound 0.04 µM): 0.64
- relative viability ([2]; first compound 0.1265 µM): 0.751
- relative viability ([2]; first compound 0.4 µM): 0.865
- relative viability ([2]; first compound 1.265 µM): 0.683
- relative viability ([3]; first compound 0.04 µM): 0.621
- relative viability ([3]; first compound 0.1265 µM): 0.785
- relative viability ([3]; first compound 0.4 µM): 0.855
- relative viability ([3]; first compound 1.265 µM): 0.703
- relative viability ([4]; first compound 0.04 µM): 0.768
- relative viability ([4]; first compound 0.1265 µM): 0.745
- relative viability ([4]; first compound 0.4 µM): 0.902
- relative viability ([4]; first compound 1.265 µM): 0.755
- relative viability ([5]; first compound 0.04 µM): 0.399
- relative viability ([5]; first compound 0.1265 µM): 0.497
- relative viability ([5]; first compound 0.4 µM): 0.473
- relative viability ([5]; first compound 1.265 µM): 0.34

Cell Line: UMC-11
- relative viability ([1]; first compound 0.04 µM): 0.663
- relative viability ([1]; first compound 0.1265 µM): 0.525
- relative viability ([1]; first compound 0.4 µM): 0.576
- relative viability ([1]; first compound 1.265 µM): 0.684
- relative viability ([2]; first compound 0.04 µM): 0.639
- relative viability ([2]; first compound 0.1265 µM): 0.583
- relative viability ([2]; first compound 0.4 µM): 0.582
- relative viability ([2]; first compound 1.265 µM): 0.626
- relative viability ([3]; first compound 0.04 µM): 1.05
- relative viability ([3]; first compound 0.1265 µM): 1.1
- relative viability ([3]; first compound 0.4 µM): 0.962
- relative viability ([3]; first compound 1.265 µM): 0.805
- relative viability ([4]; first compound 0.04 µM): 0.653
- relative viability ([4]; first compound 0.1265 µM): 0.799
- relative viability ([4]; first compound 0.4 µM): 0.788
- relative viability ([4]; first compound 1.265 µM): 0.763
- relative viability ([5]; first compound 0.04 µM): 0.288
- relative viability ([5]; first compound 0.1265 µM): 0.335
- relative viability ([5]; first compound 0.4 µM): 0.367
- relative viability ([5]; first compound 1.265 µM): 0.343
